According to patent publication US20250270170A1, “2,3-DIMETHOXY-5-METHYL-1,4-BENZOQUINONE ALKYL ALCOHOL DERIVATIVE AND USE THEREOF” (BEIJING ANJIANXI BIO-MEDICAL TECHNOLOGY CO., LTD., priority 2021, published 2025):

Assays:
NCI-H460 cells = experiment: Flow cytometry for apoptosis detection (Annexin V-FITC/PI), NCI-H460; type: cell-based, human; conditions: 72 h
Description: (1) Cells were inoculated in a 6-well plate. When the cell growth density was appropriate, four concentrations (0 μM, 10 μM, 30 μM, and 90 μM) of the compound of formula (I) were added, and placed in an incubator at 37° C. with 5% CO2 to continue culturing for 72 hours.
(2) After reaching the designated time point, the cell culture plate was taken out from the incubator, and placed in a biological safety cabinet. A 4 ml centrifuge tube was taken and marked. The supernatant in the 6-well plate was pipetted out and added to the corresponding 4 ml centrifuge tube. The cells were gently washed with PBS, and the PBS was added to the corresponding centrifuge tube. An appropriate amount of trypsin was added to each well to digest the cells. When the cells were digested to a moderate degree, the liquid in the centrifuge tube was added to the corresponding well. The cells were gently pipetted with a pipette to disperse the cells, and was pipetted back into the original centrifuge tube. The tube was immediately centrifuged at 1500 rpm for 5 minutes. Then, the supernatant was discarded and the precipitate was retained.
(3) 2 ml of PBS was added to the centrifuge tube, which was centrifuged again at 1000 rpm for 5 minutes. The supernatant was discarded. This step was repeated again.
(4) The cells were suspended with 1× Binding buffer, and the cell concentration was adjusted to approximately 1×10^6 cells/ml. 100 μl of cell suspension was added to the flow cytometry tube, and 5 μl of PI and 5 μl of Annexin V-FITC were added to each tube. The cells were gently vortexed, and incubated at room temperature in dark for 15 min.
(5) 400 μl of 1× Binding buffer was further added to each tube, and the detection was performed on the flow cytometer (the detection was in need to be completed within 1 hour).
We used AnnexinV-FITC and PI double staining method for apoptosis staining. FL1 channel was selected for FITC, and FL2 channel was selected for PI. Flow cytometry analysis was used to detect cell apoptosis. Q1, Q2, Q3, and Q4 represented dead cells, late apoptotic cells, early apoptotic cells, and normal cells, respectively (FIG. 7). After treating A549 and NCI-H460 cells with the compound of formula (I) at different concentrations (0 μM, 10 μM, 30 μM, and 90 μM) for 72 h, the flow cytometry results are as follows. Table 1 and Table 2 show the proportions of dead cells, late apoptotic cells, early apoptotic cells, and normal cells after treating the A549 and NCI-H460 cells with different concentrations of the compound of formula (I), respectively.

ICR mice = experiment: Example 6: repeated gavage administration toxicity for 2 weeks; type: in vivo
Source text: The compound of formula (I) was gavagely administered continuously to ICR mice for 14 days, to evaluate the nature, degree, and time-effect relationship of the toxic reactions that the compound of formula (I) may cause, and to provide reference information for the subsequent research.
Preparation of the administration formulation of the test sample in each dosage group: The preparation of the test sample was the same as that in Example 5. When the test sample was used, a final volume mark was marked on a container, and a required amount of the test sample was weighed (weighing weight of the test sample=theoretical dosage/conversion factor) into a container. An appropriate amount of solvent was firstly added, and the mixture was stirred and mixed thoroughly, and sonicated if necessary. The solvent was further added to the final volume mark to dilute and mix evenly, to give a visually uniform formulation, which was verified by the methodology. […] The administration formulation of the test sample with a concentration range of 0.01 mg/mL to 60 mg/mL was stable within 8 days when being stored airtightly at 2° C. to 8
Route of Administration: Oral Gavage
Administered once a day; while maintaining the same administration period every day.
Administered continuously for 14 days
The dosage was calculated based on the latest animal body weight.
The administration formulation of the test sample was stirred at room temperature for at least 10 minutes, and suspended uniformly with visual inspection before the administration. The administration formulation of the test sample was required to be continually stirred during the administration.
Observation indicators: observation of general physical signs, detailed clinical observation, body weight, and food intake were included.

[1] = 100 mg/kg dosage group, surviving animals

Compound: COC1=C(OC)C(=O)C(CCCCCCCCCCOC(=O)Cc2c(C)n(C(=O)c3ccc(Cl)cc3)c3ccc(OC)cc23)=C(C)C1=O [compound of formula (I)]
- Q1 Gated % (dead cells) (NCI-H460 cells; 10 μM): 1.72 ± 0.08%
- Q2 Gated % (late apoptotic cells) (NCI-H460 cells; 10 μM): 3.23 ± 2.59%
- Q3 Gated % (early apoptotic cells) (NCI-H460 cells; 10 μM): 1.55 ± 1.16%
- Q4 Gated % (normal cells) (NCI-H460 cells; 10 μM): 93.5 ± 3.82%
- percentage of apoptosis (total apoptosis) (NCI-H460 cells; 10 μM): 4.78 ± 3.75
- Q1 Gated % (dead cells) (NCI-H460 cells; 30 μM): 1.75 ± 0.45%
- Q2 Gated % (late apoptotic cells) (NCI-H460 cells; 30 μM): 4.79 ± 0.37%
- Q3 Gated % (early apoptotic cells) (NCI-H460 cells; 30 μM): 5.01 ± 1.70%
- Q4 Gated % (normal cells) (NCI-H460 cells; 30 μM): 88.45 ± 2.47%
- percentage of apoptosis (total apoptosis) (NCI-H460 cells; 30 μM): 9.8 ± 2.06
- Q1 Gated % (dead cells) (NCI-H460 cells; 90 μM): 0.55 ± 0.04%
- Q2 Gated % (late apoptotic cells) (NCI-H460 cells; 90 μM): 9.32 ± 0.35%
- Q3 Gated % (early apoptotic cells) (NCI-H460 cells; 90 μM): 38.35 ± 2.33%
- Q4 Gated % (normal cells) (NCI-H460 cells; 90 μM): 51.85 ± 2.05%
- percentage of apoptosis (total apoptosis) (NCI-H460 cells; 90 μM): 47.67 ± 1.99
- abnormal reactions (ICR mice; 25 mg/kg dosage group): No abnormal reactions
- body weight (ICR mice; 25 mg/kg dosage group): increased normally
- animals found dead (ICR mice; 25 mg/kg dosage group, 20 animals per group, gavage once a day, 14 days): No animal was found dead
- abnormal reactions (ICR mice; 50 mg/kg dosage group): No abnormal reactions
- body weight (ICR mice; 50 mg/kg dosage group): increased normally
- animals found dead (ICR mice; 50 mg/kg dosage group, 20 animals per group, gavage once a day, 14 days): No animal was found dead
- abnormal reactions (ICR mice; [1]): No abnormal reactions
- body weight (ICR mice; [1]): increased normally
- animals found dead (ICR mice; 100 mg/kg dosage group, 20 animals per group, gavage once a day, 14 days): 3
- animals found dead (ICR mice; 300 mg/kg dosage group, 20 animals per group, gavage once a day, 14 days): 10
- animals found dead (ICR mice; 1000 mg/kg dosage group, 20 animals per group, gavage once a day): 13
- animals found dead (ICR mice; 1000 mg/kg/d dosage group, from D3 to D6, administration then stopped): 4
